Source: patent publication US12528944B2, “Live-cell fluorescent mitochondrial stains” (HOWARD HUGHES MEDICAL INSTITUTE, priority 2022, dated 2026)
Entries after “also recorded” stand apart in the source; their conditions may differ.

Key:
[1] = Quantum yield determination (absolute, integrating sphere)
Method: Unless otherwise noted, Φf values were measured in PBS, pH 7.4. This instrument uses an integrating sphere to determine photons absorbed and emitted by a sample. Measurements were carried out using dilute samples (A<0.1) and self-absorption corrections^24 were performed using the instrument software. Reported values are averages (n=3).

[2] = UV-vis and fluorescence spectroscopy; settings: for absorptivity, quantum yield and brightness in nonpolar conditions relative to PBS: SDS micelles and dioxane:water mixtures
Method: Spectroscopy was performed using 1-cm path length, 3.5-mL quartz cuvettes from Starna Cells. All measurements were taken at ambient temperature (22±2° C.). […] Fluorescence spectra were recorded on a Cary Eclipse fluorometer (Varian). Unless otherwise noted, maximum absorption wavelength (λabs), extinction coefficient (ε), and maximum emission wavelength (λem) were measured in PBS, pH 7.4. Reported values and spectra are averages (n=3).

[3] = Chemical stability by fluorescence in different buffers and media; format: physicochemical; settings: 1 μM; citrate pH 5, PBS pH 7.4, Tris pH 9, DMEM, DMEM+10% FBS
Method: Measurement of chemical stability by fluorescence (FIG. 5A-5B). To compare the chemical stability of 15 in different conditions using changes in fluorescence, samples (1 μM) of 15 were prepared in the following solutions: citrate buffer, pH 5; PBS, pH 7.4; Tris buffer, pH 9; DMEM; and DMEM containing 10% v/v FBS (DMEM+FBS). 200 μL of each solution (n=3) was placed in a black, clear-bottom 96-well microplate (Nunc, 165305) and sealed with an adhesive film. The fluorescence of the DAB dye was monitored using 445 nm excitation and 510-550 nm emission (integrated signal) reading from the bottom of the plate using a TECAN Spark microplate reader controlled with SparkControl software.

[4] = test system: mitochondria of live U2OS cells; assay: Cellular retention after dye-free media exchange washes; format: cell-based; settings: 1 h, 37° C., 0, 1 or 2 dye-free media washes
Method: To compare cellular retention of 15, 20, and MitoView 405, U2OS cells were incubated with 15 (200 nM), 20 (200 nM) or MitoView 405 (100 nM; Biotium) for 1 h at 37° C.

[5] = Photochemistry under 405 nm illumination, analysis by LC-MS; format: physicochemical; settings: PBS, 5 and 20 min
Method: To investigate photochemistry, solutions of 8, 11, and 13-15 (100 μM) were prepared in PBS and placed in a glass vial. An aliquot of this freshly prepared solution was immediately analyzed by LC-MS (−hv). The solution was then irradiated with 405 nm light from an LED array (LOCTITE CL20 flood array) for 5 min (t=5 min) and 20 min (t=20 min) followed by analysis using LC-MS. Photochemical adducts 17/17i and 18/18i were purified and the spectral properties of these isomeric mixtures were analyzed. These compounds were then treated with 1 or 2 equivalents of NaOH(aq) to hydrolyze the iminium bond; the resulting oxidized coumarin products S1/S1i and S2/S2i were observed by LC-MS.

[6] = Chemical stability (iminium hydrolysis) by LC-MS; format: physicochemical; settings: 25 μM; citrate pH 5, PBS pH 7.4, Tris pH 9; sampled every 30 min over 12 h
Method: Measurement of chemical stability and photostability by tandem high-pressure liquid chromatography-mass spectrometry (LC-MS; FIG. 3A-D, FIG. 4A-4D, FIG. 6, FIG. 10). To examine the chemical stability and photostability of the DAB dyes, samples were assessed by tandem high-pressure liquid chromatography-mass spectrometry (LC-MS) using an Agilent 1200 LC-MS system equipped with an autosampler, diode array detector, and mass spectrometry detector (ESI; positive ion mode) using a 4.6×150 mm Gemini NX-C18 column with a 5-95% or 5-50% gradient of CH3CN in H2O containing constant 0.1% (v/v) TFA. Chromatograms were monitored using absorbance at 254 nm or 400 nm. To investigate chemical hydrolysis, solutions of 8, 11, and 13-15 (100 μM) were prepared in PBS, pH 7.4. An aliquot of this freshly prepared solution was immediately analyzed by LC-MS (t=0). The solution was then incubated at ambient temperature protected from light for 48 h and analyzed again by LC-MS (t=48 h). Standard samples of coumarins 6, 10, and 12 (100 μM, PBS) were analyzed in the same manner. To compare the stability of compounds 15 and 20 under different conditions, solutions of each dye (25 μM) in citrate buffer, pH 5, PBS, pH 7.4, or Tris buffer, pH 9 were prepared in an autosampler vial and the sample was analyzed using the LC-MS instrumentation every 30 min. […]

U2OS cells = assay: In-cell photostability experiments; format: cell-based; settings: 405 nm laser, 15 photobleaching cycles
Method: In-cell photostability experiments (FIG. 9C). U2OS cells were incubated with 15 (200 nM), 20 (200 nM) or MitoView 405 (100 nM; Biotium) for 1 h at 37° C. and imaged live without washing using a Leica SP8 Falcon confocal microscope with enabled adaptive focus control (AFC), an HC PL-APO 86×/1.20 water objective, and a 405 nm diode laser at 58.9% laser power. […] These images were processed using FIJI.^25

Row | Compound | fluorescence quantum yield (Φf) ([1]; PBS, pH 7.4) | Stokes shift ([2]; PBS, pH 7.4) | maximum fluorescence emission wavelength (λem) ([2]; PBS, pH 7.4) | absorptivity, quantum yield and brightness in nonpolar conditions relative to PBS [2] | bathochromic shift in λabs relative to parent coumarin ([2]; PBS, pH 7.4) | shift in λem relative to parent coumarin ([2]; PBS, pH 7.4) | also measured
1 | CCN(CC)c1ccc2c(C)cc(=O)oc2c1 [Compound 6, 7-diethylamino-4-methylcoumarin, reference compound] | 0.06 |  |  |  |  |  | 
2 | CC[N+](CC)=c1cc(C)c2cc3c4c(c2o1)CCCN4CCC3.O=C([O-])C(F)(F)F [Compound 13, N-ethyl-N-(9-methyl-2,3,6,7-tetrahydro-1H,5H,11H-pyrano[2,3-f]pyrido[3,2,1-ij]quinolin-11-ylidene)ethanaminium trifluoroacetate] |  | 68 nm | 513 nm |  |  |  | 
3 | Cc1cc(=[N+]2CCCCC2)oc2c3c4c(cc12)CCCN4CCC3.O=C([O-])C(F)(F)F [Compound 15, 1-(9-methyl-2,3,6,7-tetrahydro-1H,5H,11H-pyrano[2,3-f]pyrido[3,2,1-ij]quinolin-11-ylidene)piperidin-1-ium trifluoroacetate] |  |  |  | higher absorptivity and fluorescence quantum yield |  |  | rate of hydrolysis in different buffer conditions [3]: modestly higher rates of hydrolysis was observed at elevated pH or in cell culture media containing serum; cellular signal upon media exchange (retention) ([4]; trifluoroacetate): rapidly decreased upon media exchange; also recorded: signal rapidly decreased; photochemical oxidation [5]: no photochemically driven oxidation was detected on the piperidine ring
4 | Cc1cc(N2CCC2)[o+]c2cc(N3CCC3)ccc12.O=C([O-])C(F)(F)F [Compound 11, 2,7-Di(azetidin-1-yl) 4-methylbenzopyrylium trifluoroacetate] | 0.79 | 99 nm |  |  | 48 nm | 34 nm | 
5 | Cc1cc(=[N+]2CCC(CCCC3CC[N+](=c4cc(C)c5cc6c7c(c5o4)CCCN7CCC6)CC3)CC2)oc2c3c4c(cc12)CCCN4CCC3.O=C([O-])C(F)(F)F.O=C([O-])C(F)(F)F (stereo not shown) [Compound 20, 4,4′-(propane-1,3-diyl)bis(1-(9-methyl-2,3,6,7-tetrahydro-1H,5H,11H-pyrano[2,3-f]pyrido[3,2,1-ij]quinolin-11-ylidene)piperidin-1-ium) trifluoroacetate] | 0.45 |  | 524 nm | brighter in dioxane:water mixtures |  |  | rate of hydrolysis relative to 15 [6]: slightly higher rate of hydrolysis; cellular signal upon media exchange (retention) [4]: retained; fluorescence quantum yield (Φf) ([1]; PBS containing 0.1% w/v SDS): 0.83; extinction coefficient at λabs (ε) ([2]; PBS containing 0.1% w/v SDS): 78,900 M^−1 cm^−1; maximum absorption wavelength (λabs) ([2]; PBS, pH 7.4): 447 nm; extinction coefficient at λabs (ε) ([2]; aqueous solution (PBS, pH 7.4)): 45,200 M^−1 cm^−1; resistance to photobleaching in live cells (U2OS cells): best overall photostability
6 | CCN(CC)c1ccc2c(C)cc(N(CC)CC)[o+]c2c1.O=C([O-])C(F)(F)F [Compound 8, 2,7-Bis(diethylamino)-4-methylbenzopyrylium trifluoroacetate] | 0.16 | 65 nm |  |  | 45 nm | 26 nm | 
